According to US20170304195A1, “PHARMACEUTICAL FORMULATIONS FOR THE ORAL DELIVERY OF PEPTIDE OR PROTEIN DRUGS” (Cyprumed GmbH, priority 2014, published 2017):
Where two headings read alike, the source gives them in different places.

Experiments:
[1] = rat, in vivo
Method: (§1) Teriparatide (PTH1-34) was dosed subcutaneously in volume of 1 ml/kg (final concentration 0.024 mg/ml teriparatide) to anaesthetized rats. […] Blood was taken from tail vessels at the time points 0, 10, 20, 40, 60, 90, 120 and 180 min after dosing. The teriparatide plasma concentrations were determined using commercial pTH (1-34) human ELISA kit (Biovendor, EU, cat. number RS-1163.0001).

[2] = pH of dissolved solid powder mixtures (Example 17); format: physicochemical
in vivo [3] = settings: Sprague Dawley, rat, sc
Method: as §1

[4] = study comparing aprotinin with aminocaproic acid; cited from earlier work
[5] = rat, in vivo; remark: listed apart in the source
Method: (§2) Blood was taken from tail vessels at the time points 0, 10, 20, 40, 60, 90, 120 and 180 min after dosing.

in vivo [6] = settings: Sprague Dawley, rat, sc, 0.1 mg/kg
Method: as §2

Q: What does the source list for CC[C@H](C)[C@H](NC(=O)[C@H](CCC(=O)O)NC(=O)[C@H](CO)NC(=O)[C@@H](NC(=O)[C@@H](N)CO)C(C)C)C(=O)N[C@@H](CCC(N)=O)C(=O)N[C@@H](CC(C)C)C(=O)N[C@@H](CCSC)C(=O)N[C@@H](Cc1cnc[nH]1)C(=O)N[C@@H](CC(N)=O)C(=O)N[C@@H](CC(C)C)C(=O)NCC(=O)N[C@@H](CCCCN)C(=O)N[C@@H](Cc1cnc[nH]1)C(=O)N[C@@H](CC(C)C)C(=O)N[C@@H](CC(N)=O)C(=O)N[C@@H](CO)C(=O)N[C@@H](CCSC)C(=O)N[C@@H](CCC(=O)O)C(=O)N[C@@H](CCCN=C(N)N)C(=O)N[C@H](C(=O)N[C@@H](CCC(=O)O)C(=O)N[C@@H](Cc1c[nH]c2ccccc12)C(=O)N[C@@H](CC(C)C)C(=O)N[C@@H](CCCN=C(N)N)C(=O)N[C@@H](CCCCN)C(=O)N[C@@H](CCCCN)C(=O)N[C@@H](CC(C)C)C(=O)N[C@@H](CCC(N)=O)C(=O)N[C@@H](CC(=O)O)C(=O)N[C@H](C(=O)N[C@@H](Cc1cnc[nH]1)C(=O)N[C@@H](CC(N)=O)C(=O)N[C@@H](Cc1ccccc1)C(=O)O)C(C)C)C(C)C [PTH(1-34), Teriparatide]?
A: F [1]: 100 ± 23%; plasma half-life of PTH(1-34) compared to s.c. administration, in words [1]: increased plasma half-life; Dissolution pH in 5 ml Aqua purificata ([2]; CuSO4 10 mg, lauroyl carnitine 10 mg, MCC 50 mg, no buffer): 3.6; Dissolution pH in 5 ml Aqua purificata ([2]; CuSO4 10 mg, lauroyl carnitine 10 mg, gelatin capsule 50 mg, no buffer): 4.4; Dissolution pH in 5 ml Aqua purificata ([2]; CuSO4 10 mg, lauroyl carnitine 10 mg, lactose 50 mg, 10 mg TRIS): 6.5; Dissolution pH in 5 ml Aqua purificata ([2]; CuSO4 10 mg, lauroyl carnitine 10 mg, lactose 50 mg, buffer cell empty): 3.2; Dissolution pH in 5 ml Aqua purificata ([2]; CuSO4 10 mg, sucrose laurate 10 mg, lactose 50 mg, no buffer): 5.0; Dissolution pH in 5 ml Aqua purificata ([2]; ZnCl2 10 mg, lauroyl carnitine 10 mg, MCC 50 mg, 5 mg TRIS): 6.3; Dissolution pH in 5 ml Aqua purificata ([2]; ZnCl2 10 mg, lauroyl carnitine 10 mg, MCC 50 mg, no buffer): 3.5; Dissolution pH in 5 ml Aqua purificata ([2]; ZnCl2 10 mg, lauroyl carnitine 10 mg, gelatin capsule 50 mg, 10 mg TRIS): 6.8; Dissolution pH in 5 ml Aqua purificata ([2]; ZnCl2 10 mg, lauroyl carnitine 10 mg, gelatin capsule 50 mg, no buffer): 4.3; Dissolution pH in 5 ml Aqua purificata ([2]; ZnCl2 10 mg, lauroyl carnitine 10 mg, lactose 50 mg, 10 mg TRIS): 7.1; Dissolution pH in 5 ml Aqua purificata ([2]; ZnCl2 10 mg, lauroyl carnitine 10 mg, lactose 50 mg, buffer cell empty): 2.9; Dissolution pH in 5 ml Aqua purificata ([2]; ZnSO4 10 mg, lauroyl carnitine 10 mg, lactose 50 mg, 10 mg TRIS): 7.5; Dissolution pH in 5 ml Aqua purificata ([2]; ZnSO4 10 mg, lauroyl carnitine 10 mg, lactose 50 mg, no buffer): 3.1; Dissolution pH in 5 ml Aqua purificata ([2]; ZnSO4 10 mg, sucrose laurate 10 mg, lactose 50 mg, no buffer): 6.5; Tmax (in vivo [3]): 10 min; half-life (in vivo [3]): 44 ± 8 min

Q: Which increase of mortality [4] does the source give for Aprotinin here?
A: 64%

Q: With CCNC(=O)[C@@H]1CCCN1C(=O)[C@H](CCCNC(=N)N)NC(=O)[C@H](CC(C)C)NC(=O)[C@@H](CC(C)C)NC(=O)[C@H](Cc1ccc(O)cc1)NC(=O)[C@H](CO)NC(=O)[C@H](Cc1c[nH]c2ccccc12)NC(=O)[C@H](Cc1c[nH]cn1)NC(=O)[C@@H]1CCC(=O)N1 [Leuprolide] as the compound, how does the F [5] read?
A: 100 ± 19.5%

Q: What about the AUC(0-t) (in vivo [6]) of the same compound?
A: 130 ng·h/mL

Q: What about the Cmax (in vivo [6]) of the same compound?
A: 78.9 ± 14.7 ng/mL

Q: What about the Tmax (in vivo [6]) of the same compound?
A: 20 to 40 min
